Laboratory results as given in patent US10750743B2, “Pyridazinone herbicides” (E.I. DU PONT DE NEMOURS AND COMPANY, priority 2015, dated 2020).

Tests used:
[1] = system: kochia (Kochia scoparia); assay: Test A postemergence application, visual injury rating; format: in vivo; settings: for pest or weed control at 125 g/ha / pest or weed control at 500 g/ha: Bassia scoparia, post-emergence, 240 h, 0 to 100 scale, 0 no effect, 100 complete control, read-out: Kochia plant response rating; for pest or weed control at 125 g/ha: 125 g ai/ha; for pest or weed control at 500 g/ha: 500 g ai/ha; for Plant response rating (0 to 100 scale), Kochia: 31 g ai/ha, 0 is no effect, 100 is complete control
Outline: (§1)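 Seeds sown in a loam soil–sand blend received a directed preemergence soil spray of test chemical in a non-phytotoxic solvent mixture with surfactant. Postemergence plants were sprayed at 2 to 10 cm, one- to two-leaf stage. After approximately 10 d in greenhouse, injury was visually rated 0 (no effect) to 100 (complete control) against untreated controls.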

[2] = system: foxtail, giant (giant foxtail, Setaria faberii); assay: as above; format: in vivo; settings: for pest or weed control at 125 g/ha / pest or weed control at 500 g/ha: Setaria faberi, post-emergence, 240 h, 0 to 100 scale, 0 no effect, 100 complete control, read-out: Foxtail, Giant plant response rating; for pest or weed control at 125 g/ha: 125 g ai/ha; for pest or weed control at 500 g/ha: 500 g ai/ha; for Plant response rating (0 to 100 scale), Foxtail, Giant: 31 g ai/ha, 0 is no effect, 100 is complete control
Outline: as §1

## Cc1cc2ccc(C)c(-c3c(O)c(C)nn(C)c3=O)c2o1 [Compound 10, 4-(2,6-dimethyl-7-benzofuranyl)-5-hydroxy-2,6-dimethyl-3(2H)-pyridazinone]
other
  melting point: 194 to 199 °C
[1]
  pest or weed control at 125 g/ha: 100%
  pest or weed control at 500 g/ha: 100%
[2]
  pest or weed control at 125 g/ha: 80%
  pest or weed control at 500 g/ha: 90%

## Cc1cc2cccc(-c3c(O)c(C)nn(C)c3=O)c2o1 [Compound 12, 5-hydroxy-2,6-dimethyl-4-(2-methyl-7-benzofuranyl)-3(2H)-pyridazinone]
[1]
  pest or weed control at 125 g/ha: 0%
  pest or weed control at 500 g/ha: 50%
[2]
  pest or weed control at 125 g/ha: 20%
  pest or weed control at 500 g/ha: 40%

## Cc1ccc2sccc2c1-c1c(O)c(C)nn(C)c1=O [Compound 29, 5-hydroxy-2,6-dimethyl-4-(5-methylbenzo[b]thien-4-yl)-3(2H)-pyridazinone]
[1]
  pest or weed control at 125 g/ha: 90%
  pest or weed control at 500 g/ha: 100%
[2]
  pest or weed control at 125 g/ha: 20%
  pest or weed control at 500 g/ha: 80%

## Cn1nc(Cl)c(O)c(-c2nccc3ccccc23)c1=O [Compound 67, 6-chloro-5-hydroxy-4-(1-isoquinolinyl)-2-methyl-3(2H)-pyridazinone]
[1]
  Plant response rating (0 to 100 scale), Kochia: 0
  pest or weed control at 125 g/ha: 40%
[2]
  Plant response rating (0 to 100 scale), Foxtail, Giant: 0
  pest or weed control at 125 g/ha: 0%

## CC(=O)Oc1c(C)nn(C)c(=O)c1-c1cccc2cc(C)oc12 [Compound 13, 5-(acetyloxy)-2,6-dimethyl-4-(2-methyl-7-benzofuranyl)-3 (2H)-pyridazinone]
[1]
  pest or weed control at 125 g/ha: 50%
  pest or weed control at 500 g/ha: 80%
[2]
  pest or weed control at 125 g/ha: 30%
  pest or weed control at 500 g/ha: 50%

## Cc1nn(C)c(=O)c(-c2cccc3snc(C)c23)c1O [Compound 25, 5-hydroxy-2,6-dimethyl-4-(3-methyl-1,2-benzisothiazol-4-yl)-3 (2H)-pyridazinone]
other
  melting point: 115 to 118 °C
[1]
  pest or weed control at 125 g/ha: 100%
  pest or weed control at 500 g/ha: 100%
[2]
  pest or weed control at 125 g/ha: 30%
  pest or weed control at 500 g/ha: 80%

## COc1c(C)nn(C)c(=O)c1-c1ccc(F)c2ccoc12 [Compound 69, 4-(4-fluoro-7-benzofuranyl)-5-methoxy-2,6-dimethyl-3(2H)-pyridazinone]
[1]
  Plant response rating (0 to 100 scale), Kochia: 0
  pest or weed control at 125 g/ha: 0%
[2]
  Plant response rating (0 to 100 scale), Foxtail, Giant: 0
  pest or weed control at 125 g/ha: 0%

## CCOC(=O)Oc1c(C)nn(C)c(=O)c1-c1c(C)ccc2sccc12 [Compound 30, 1,6-dihydro-1,3-dimethyl-5-(5-methylbenzo[b]thien-4-yl)-6-oxo-4-pyridazinyl ethyl carbonate]
other
  melting point: 103 to 107 °C
[1]
  pest or weed control at 125 g/ha: 90%
  pest or weed control at 500 g/ha: 100%
[2]
  pest or weed control at 125 g/ha: 10%
  pest or weed control at 500 g/ha: 70%

## Cc1nn(C)c(=O)c(-c2ccc(F)c3ccoc23)c1O [Compound 68, 4-(4-fluoro-7-benzofuranyl)-5-hydroxy-2,6-dimethyl-3(2H)-pyridazinone]
[1]
  Plant response rating (0 to 100 scale), Kochia: 20
  pest or weed control at 125 g/ha: 90%
[2]
  Plant response rating (0 to 100 scale), Foxtail, Giant: 0
  pest or weed control at 125 g/ha: 20%

## CC(=O)Oc1c(C)nn(C)c(=O)c1-c1c(C)ccc2cc(C)oc12 [Compound 11, 5-(acetyloxy)-4-(2,6-dimethyl-7-benzofuranyl)-2,6-dimethyl-3(2H)-pyridazinone]
other
  melting point: 93 to 96 °C
[1]
  pest or weed control at 125 g/ha: 100%
  pest or weed control at 500 g/ha: 100%
[2]
  pest or weed control at 125 g/ha: 60%
  pest or weed control at 500 g/ha: 80%
